Measurements from patent US20070259087A1, “Antimicrobial Peptides” (Novozymes A/S, priority 2003, published 2007).

Test system: E. coli TOP10
Type: cell-based
Settings: end point OD450 after 14 hours, 37 degrees Celsius
Protocol: A range of synthetic antimicrobial polypeptides were expressed in E. coli TOP10 (Invitrogen) using arabinose as inducer, as disclosed in Example 1 of International patent application WO 00/73433 (with minor modifications). […] Briefly, fresh overnight cultures grown in RM medium containing 0.2% glucose and ampicillin (100 μg/ml) were diluted 300-fold into 150 microliter of RM containing 0.2% glycerol and ampicillin (100 μg/ml) and different concentrations of arabinose (0, 0.01% or 0.1%) in a microtiter plate and incubated at 37 degrees Celsius with vigorous shaking. The growth curve was monitored by measuring OD450 using a Bioscreen C Microbiology reader (Thermo Electron Corporation) at intervals of 30 minutes for 14 hours (see Invitrogen protocol of the pBAD/gill A, B and C vectors catalogue nos. V450-01 for buffer and media composition). The percentage of growth inhibition was calculated as the end point OD measurement of each sample divided by the end point OD measurement obtained from cells containing the control vector and multiplied by 100. The formula is the following: [formula] where “blank OD” corresponds to the OD of an empty well.

Sequence | Growth inhibition using 0.01% arabinose (%) | Growth inhibition using 0.1% arabinose (%)
GILNIIGRAVKTVLESIR (Synthetic antimicrobial peptide) [SEQ ID NO:25] | 97% | 99%
GILNKLRKKLKRVLQRIL (Synthetic antimicrobial peptide) [SEQ ID NO:27] | 84% | 97%
GILSKLKKAIKRILQDVLRWL (Synthetic antimicrobial peptide) [SEQ ID NO:43] | 82% | 99%
GILSKLKKKAKNAVKMFCRWL (Synthetic antimicrobial peptide) [SEQ ID NO:46] | 92% | 96%
GILSMLERRWSMYCSIFCRWL (Synthetic antimicrobial peptide) [SEQ ID NO:45] | 98% | 100%
GLFRKLKKTIKRVLKHVP (Synthetic antimicrobial peptide) [SEQ ID NO:31] | 86% | 96%
GLFRKLRKKVKKVLKHVL (Synthetic antimicrobial peptide) [SEQ ID NO:23] | 91% | 98%
GLFSIIMRAVKKVWQRVR (Synthetic antimicrobial peptide) [SEQ ID NO:9] | 97% | 100%
GLFSILKREIKRTFSNFYRWL (GLFSILKREIKRTFSMFYRWL; Synthetic antimicrobial peptide) [SEQ ID NO:41] | 86% | 99%
GLFSLLRKTIKKVLQHIR (Synthetic antimicrobial peptide) [SEQ ID NO:32] | 91% | 99%
GLFTKLRKATKRILEHVL (Synthetic antimicrobial peptide) [SEQ ID NO:3] | 81% | 87%
GLLEKLRKALKRILQHVL (Synthetic antimicrobial peptide) [SEQ ID NO:12] | 91% | 97%
GLLGKIRKEGRNFWRVFRRWL (GLLGKIRKEGRMFWRVFRRWL; Synthetic antimicrobial peptide) [SEQ ID NO:38] | 86% | 92%
GLLGKLKKELKNVLEHIYRWL (Synthetic antimicrobial peptide) [SEQ ID NO:42] | 75% | 93%
GLLGKLKRKIKKALEGIR (Synthetic antimicrobial peptide) [SEQ ID NO:35] | 96% | 99%
GLLKTIRKKIKRVLKHVR (Synthetic antimicrobial peptide) [SEQ ID NO:4] | 96% | 99%
GLLNKIKKTIKRAVQHVL (Synthetic antimicrobial peptide) [SEQ ID NO:18] | 76% | 92%
GLLNKLKKNVKNIVQHILRWL (Synthetic antimicrobial peptide) [SEQ ID NO:40] | 77% | 95%
GLLNKLKRALKKVVKHVR (Synthetic antimicrobial peptide) [SEQ ID NO:33] | 84% | 94%
GLLRILKKKAKKALQHIL (Synthetic antimicrobial peptide) [SEQ ID NO:37] | 86% | 93%
GLLRKIKMKAKKVLKNIL (Synthetic antimicrobial peptide) [SEQ ID NO:22] | 72% | 83%
GLLRKLGKKIKRVVKHVG (Synthetic antimicrobial peptide) [SEQ ID NO:10] | 98% | 100%

Sequence | Growth inhibition using 0.01% arabinose (%) | Growth inhibition using 0.1% arabinose (%)
GLLRKLRKEVKKVLSIFFRWL (Synthetic antimicrobial peptide) [SEQ ID NO:39] | 97% | 99%
GLLSILKRKSKRILKHIL (Synthetic antimicrobial peptide) [SEQ ID NO:24] | 88% | 96%
GLLSKIMKAVKRTLKHIL (Synthetic antimicrobial peptide) [SEQ ID NO:16] | 89% | 99%
GLLSKIRKKLKRVLQSIR (Synthetic antimicrobial peptide) [SEQ ID NO:20] | 77% | 94%
GLLSKLGKAVKNILEDVV (Synthetic antimicrobial peptide) [SEQ ID NO:28] | 98% | 100%
GLLSKLKKTVKRVVKHVR (Synthetic antimicrobial peptide) [SEQ ID NO:19] | 84% | 99%
GLLSKLKRKIKKAVKHIL (Synthetic antimicrobial peptide) [SEQ ID NO:30] | 82% | 95%
GLLSMLGKAVKRAVQHVL (Synthetic antimicrobial peptide) [SEQ ID NO:26] | 97% | 100%
GLLSRLRRATKIILKGIR (Synthetic antimicrobial peptide) [SEQ ID NO:14] | 72% | 88%
GLVTLLKKAMKNALEDVL (Synthetic antimicrobial peptide) [SEQ ID NO:21] | 98% | 99%
GLWNMLKKKLKKIAQGIR (Synthetic antimicrobial peptide) [SEQ ID NO:15] | 73% | 88%
GLWRKLKKALKRAVQGVR (Synthetic antimicrobial peptide) [SEQ ID NO:5] | 91% | 96%
GLWRKLRRKAKKVLQHIL (Synthetic antimicrobial peptide) [SEQ ID NO:13] | 94% | 100%
GLWSSIKKEAKHALKHIL (Synthetic antimicrobial peptide) [SEQ ID NO:29] | 55% | 81%
GMLIKLEMEAKKVVKNVL (Synthetic antimicrobial peptide) [SEQ ID NO:17] | 96% | 99%
GMLKKLKKKTKRAFSVFCRWL (Synthetic antimicrobial peptide) [SEQ ID NO:44] | 96% | 98%
GMLRKLKRKVKRTLQHVL (Synthetic antimicrobial peptide) [SEQ ID NO:8] | 78% | 88%
GMLSKLGITIKIAVKHIR (Synthetic antimicrobial peptide) [SEQ ID NO:6] | 98% | 100%
GWFNKLKTKIKKTLKHVL (Synthetic antimicrobial peptide) [SEQ ID NO:11] | 72% | 90%
GWFSKLKKTAKKLLQRVL (Synthetic antimicrobial peptide) [SEQ ID NO:7] | 76% | 82%
GWLKILEKAAKITVKNVL (Synthetic antimicrobial peptide) [SEQ ID NO:36] | 98% | 97%
GWLRKIGKAVKKVVKRVL (Synthetic antimicrobial peptide) [SEQ ID NO:34] | 90% | 99%
